System: T1, Debia-MDR
T1 construct: gene DebiaDRAFT_04514; full-length, N-terminal His6-tag (pET100, tag kept), E. coli Rosetta 2 (DE3); monomer 38,272 Da predicted, approx. 41 kDa with tag; native about 170 kDa, homotetramer; forward primer […]; (N-terminus MAKMMKT by translation)
Test: spectrophotometric NADH consumption at […] nm
Type: biochemical, Desulfococcus biacutus
Details: reduction direction, NADH co-substrate (0.1 mM in the general assay); 50 uM ZnCl2, 3 mM DTT, anoxic; general assay 25 mM MOPS pH 7.2, 30 °C

## CC(C)=O [acetone]
  Km: 40 µM

— paper PMC5123277, “Cloning, functional expression and characterization of a bifunctional 3-hydroxybutanal dehydrogenase /reductase involved in acetone metabolism by Desulfococcus biacutus” (BMC Microbiology, 2016)
